Measurements published in PubChem BioAssay AID248 (DTP/NCI, 2004).
Where “and” joins values, the source holds several entries; their conditions need not be identical. Identical values can stand only once. Toxic doses and inconclusive results are not listed.

Tested on: L1210 leukemia ip in BDF1 mice, survival T/C
Experiment: NCI In Vivo Anticancer Drug Screen. Data for tumor model L1210 Leukemia (intraperitoneal) in B6D2F1 (BDF1) mice
Conditions: endpoint: mean survival time, higher = longer survival
Method in brief: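 In this screen, tumor-bearing mice given compound are compared to those given vehicle, and their survival values are reported as a treated-to-control quotient.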

[1] = dose: 100.0 mg/kg/injection, schedule: Q01DX009 (ip), vehicle: saline with Tween-80
[2] = dose: 100.0 mg/kg/injection, schedule: Q04DX003 (ip), vehicle: Klucel (hydroxypropylcellulose) (HPC)
[3] = dose: 100.0 mg/kg/injection, schedule: Q04DX003 (ip), vehicle: saline
[4] = dose: 200.0 mg/kg/injection, schedule: Q01DX009 (ip), vehicle: saline with Tween-80
[5] = dose: 200.0 mg/kg/injection, schedule: Q04DX003 (ip), vehicle: Klucel (hydroxypropylcellulose) (HPC)
[6] = dose: 400.0 mg/kg/injection, schedule: Q01DX009 (ip), vehicle: saline with Tween-80
[7] = dose: 400.0 mg/kg/injection, schedule: Q04DX003 (ip), vehicle: Klucel (hydroxypropylcellulose) (HPC)
[8] = dose: 100.0 mg/kg/injection, schedule: Q01DX Z (ip), vehicle: methylcellulose (MC)
[9] = dose: 100.0 mg/kg/injection, schedule: Q01DX001 (ip), vehicle: Klucel (hydroxypropylcellulose) (HPC)
[10] = dose: 200.0 mg/kg/injection, schedule: Q01DX001 (ip), vehicle: Klucel (hydroxypropylcellulose) (HPC)
[11] = dose: 100.0 mg/kg/injection, schedule: Q01DX001 (ip), vehicle: saline
[12] = dose: 200.0 mg/kg/injection, schedule: Q01DX001 (ip), vehicle: saline
[13] = dose: 400.0 mg/kg/injection, schedule: Q01DX001 (ip), vehicle: saline

SMILES: OC12C3CCCC1CCCC2CCC3 (stereo not drawn)
- T/C (dose: 100.0 mg/kg/injection, schedule: Q01DX009 (ip), vehicle: other): 101 % of control
- T/C (dose: 100.0 mg/kg/injection, schedule: Q01DX009 (ip), vehicle: saline sonified): 103 % of control
- T/C [1]: 110 % of control and 90 % of control
- T/C [2]: 95 % of control and 106 % of control and 96 % of control
- T/C [3]: 102 % of control
- T/C (dose: 200.0 mg/kg/injection, schedule: Q01DX009 (ip), vehicle: other): 94 % of control
- T/C (dose: 200.0 mg/kg/injection, schedule: Q01DX009 (ip), vehicle: saline sonified): 103 % of control
- T/C [4]: 106 % of control and 89 % of control
- T/C [5]: 108 % of control and 100 % of control and 96 % of control
- T/C (dose: 200.0 mg/kg/injection, schedule: Q04DX003 (ip), vehicle: saline): 102 % of control
- T/C (dose: 400.0 mg/kg/injection, schedule: Q01DX009 (ip), vehicle: other): 92 % of control
- T/C (dose: 400.0 mg/kg/injection, schedule: Q01DX009 (ip), vehicle: saline sonified): 92 % of control
- T/C [6]: 95 % of control and 92 % of control
- T/C [7]: 95 % of control and 104 % of control and 114 % of control
- T/C (dose: 400.0 mg/kg/injection, schedule: Q04DX003 (ip), vehicle: saline): 104 % of control

SMILES: Cc1ccc(NC2CNC(=O)NC2=O)cc1 (stereo not drawn)
- T/C [8]: 100 % of control
- T/C (dose: 200.0 mg/kg/injection, schedule: Q01DX Z (ip), vehicle: methylcellulose (MC)): 93 % of control

SMILES: CCCCCCCCC1C(CCCCCCCC(=O)OC)SC(F)(F)C1(F)F (stereo not drawn)
- T/C [1]: 95 % of control
- T/C [4]: 93 % of control
- T/C [6]: 102 % of control

SMILES: CN(C)[C@@H]1C(=O)C(C(=O)NCc2nc3[nH]cnc(=S)c3[nH]2)=C(O)[C@@]2(O)C(=O)C3=C(O)c4c(O)cccc4[C@@](C)(O)[C@H]3C[C@@H]12
- T/C (dose: 16.0 mg/kg/injection, schedule: Q01DX Z (ip), vehicle: carboxymethylcellulose (CMC)): 107 % of control
- T/C (dose: 32.0 mg/kg/injection, schedule: Q01DX Z (ip), vehicle: carboxymethylcellulose (CMC)): 119 % of control
- T/C (dose: 56.0 mg/kg/injection, schedule: Q01DX Z (ip), vehicle: carboxymethylcellulose (CMC)): 103 % of control
- T/C (dose: 64.0 mg/kg/injection, schedule: Q01DX Z (ip), vehicle: carboxymethylcellulose (CMC)): 112 % of control
- T/C (dose: 128.0 mg/kg/injection, schedule: Q01DX Z (ip), vehicle: carboxymethylcellulose (CMC)): 150 % of control
- T/C (dose: 192.0 mg/kg/injection, schedule: Q01DX Z (ip), vehicle: carboxymethylcellulose (CMC)): 179 % of control

SMILES: COc1ccc(-n2c(=O)c(N=Nc3ccccc3C)c(O)n(-c3ccc(C)cc3)c2=S)cc1
- T/C [9]: 95 % of control
- T/C [10]: 97 % of control
- T/C (dose: 400.0 mg/kg/injection, schedule: Q01DX001 (ip), vehicle: Klucel (hydroxypropylcellulose) (HPC)): 97 % of control

SMILES: CCCCNc1cc(N)[nH]c(=O)n1
- T/C (dose: 75.0 mg/kg/injection, schedule: Q01DX001 (ip), vehicle: saline with Tween-80): 93 % of control
- T/C (dose: 150.0 mg/kg/injection, schedule: Q01DX001 (ip), vehicle: saline with Tween-80): 90 % of control
- T/C (dose: 300.0 mg/kg/injection, schedule: Q01DX001 (ip), vehicle: saline with Tween-80): 90 % of control

SMILES: O=C1NCC(O)CN1
- T/C (dose: 29.0 mg/kg/injection, schedule: Q01DX Z (ip), vehicle: methylcellulose (MC)): 96 % of control
- T/C (dose: 45.0 mg/kg/injection, schedule: Q01DX Z (ip), vehicle: methylcellulose (MC)): 96 % of control
- T/C (dose: 67.0 mg/kg/injection, schedule: Q01DX Z (ip), vehicle: methylcellulose (MC)): 108 % of control
- T/C [8]: 104 % of control

SMILES: N#CC1(c2ccc3c(c2)OCO3)C(c2ccc3c(c2)OCO3)CC(O)(c2ccccc2)C1C(=O)c1ccccc1 (stereo not drawn)
- T/C [1]: 96 % of control
- T/C [4]: 89 % of control
- T/C [6]: 102 % of control

SMILES: COc1ccc(-c2nnc(Cl)o2)cc1
- T/C [3]: 94 % of control

SMILES: CCOC(=O)/C=C(/OC(=O)c1ccccc1)c1ccccc1
- T/C (dose: 100.0 mg/kg/injection, schedule: Q01DX001 (ip), vehicle: acetone): 95 % of control
- T/C (dose: 100.0 mg/kg/injection, schedule: Q01DX009 (ip), vehicle: saline): 107 % of control
- T/C (dose: 200.0 mg/kg/injection, schedule: Q01DX001 (ip), vehicle: acetone): 97 % of control
- T/C (dose: 200.0 mg/kg/injection, schedule: Q01DX009 (ip), vehicle: saline): 107 % of control
- T/C (dose: 400.0 mg/kg/injection, schedule: Q01DX001 (ip), vehicle: acetone): 103 % of control
- T/C (dose: 400.0 mg/kg/injection, schedule: Q01DX009 (ip), vehicle: saline): 94 % of control

SMILES: C/C(CCCCl)=N/N=C(N)N
- T/C (dose: 12.5 mg/kg/injection, schedule: Q04DX003 (ip), vehicle: saline): 100 % of control
- T/C (dose: 18.75 mg/kg/injection, schedule: Q01DX009 (ip), vehicle: saline with Tween-80): 96 % of control
- T/C (dose: 25.0 mg/kg/injection, schedule: Q04DX003 (ip), vehicle: saline): 110 % of control
- T/C (dose: 37.5 mg/kg/injection, schedule: Q01DX009 (ip), vehicle: saline with Tween-80): 90 % of control
- T/C (dose: 50.0 mg/kg/injection, schedule: Q04DX003 (ip), vehicle: saline): 103 % of control
- T/C (dose: 75.0 mg/kg/injection, schedule: Q01DX009 (ip), vehicle: saline with Tween-80): 94 % of control
- T/C (dose: 75.0 mg/kg/injection, schedule: Q04DX003 (ip), vehicle: acetone): 95 % of control
- T/C (dose: 110.0 mg/kg/injection, schedule: Q01DX009 (ip), vehicle: saline with Tween-80): 98 % of control

SMILES: O=C(COc1ccc(Cl)c(Cl)c1)Nc1ccc[n+](Cc2ccc(S(=O)(=O)F)cc2Cl)c1
- T/C [1]: 94 % of control

SMILES: CCOC(=O)CCN(C)CCC(=O)OCC
- T/C (dose: 12.5 mg/kg/injection, schedule: Q01DX009 (ip), vehicle: water): 101 % of control
- T/C (dose: 25.0 mg/kg/injection, schedule: Q01DX009 (ip), vehicle: water): 103 % of control
- T/C (dose: 25.0 mg/kg/injection, schedule: Q04DX003 (ip), vehicle: water): 101 % of control
- T/C (dose: 50.0 mg/kg/injection, schedule: Q01DX009 (ip), vehicle: water): 105 % of control
- T/C (dose: 50.0 mg/kg/injection, schedule: Q04DX003 (ip), vehicle: water): 101 % of control
- T/C (dose: 100.0 mg/kg/injection, schedule: Q04DX003 (ip), vehicle: water): 101 % of control

SMILES: O=C(Nc1cccc(NC(=O)c2ccccc2)c1)c1ccccc1
- T/C [2]: 92 % of control
- T/C [5]: 95 % of control
- T/C [7]: 90 % of control

SMILES: Cc1ccc(C(c2ccc(C)c(C)c2)C(O)C(O)C(O)C(O)CO)cc1C (stereo not drawn)
- T/C [9]: 92 % of control
- T/C [11]: 87 % of control
- T/C [10]: 100 % of control
- T/C [12]: 91 % of control
- T/C [13]: 89 % of control

SMILES: CCCCCCCCCCC1Cc2ccccc2C1
- T/C (dose: 50.0 mg/kg/injection, schedule: Q01DX001 (ip), vehicle: saline): 95 % of control
- T/C [11]: 98 % of control
- T/C [12]: 104 % of control
- T/C [13]: 93 % of control

SMILES: O=c1c(Cl)c(C(Cl)(Cl)Cl)n(O)c2ccccc12
- T/C (dose: 6.25 mg/kg/injection, schedule: Q01DX001 (ip), vehicle: Klucel (hydroxypropylcellulose) (HPC)): 104 % of control
- T/C (dose: 12.5 mg/kg/injection, schedule: Q01DX001 (ip), vehicle: Klucel (hydroxypropylcellulose) (HPC)): 104 % of control
- T/C (dose: 25.0 mg/kg/injection, schedule: Q01DX001 (ip), vehicle: Klucel (hydroxypropylcellulose) (HPC)): 98 % of control
- T/C (dose: 50.0 mg/kg/injection, schedule: Q01DX001 (ip), vehicle: Klucel (hydroxypropylcellulose) (HPC)): 103 % of control
- T/C [9]: 95 % of control

SMILES: Cc1ccc(C)c(NC(=O)Oc2ccc3ccccc3c2)c1
- T/C (dose: 100.0 mg/kg/injection, schedule: Q01DX009 (ip), vehicle: Klucel (hydroxypropylcellulose) (HPC)): 93 % of control
- T/C [2]: 107 % of control
- T/C [5]: 107 % of control
- T/C (dose: 400.0 mg/kg/injection, schedule: Q01DX009 (ip), vehicle: Klucel (hydroxypropylcellulose) (HPC)): 91 % of control
- T/C [7]: 97 % of control

SMILES: CC1(C)N=C(N)N=C(N)N1c1cccc(OCCOc2cccc([N+](=O)[O-])c2)c1
- T/C (dose: 5.0 mg/kg/injection, schedule: Q01DX001 (ip), vehicle: saline): 105 % of control
- T/C (dose: 10.0 mg/kg/injection, schedule: Q01DX001 (ip), vehicle: saline): 102 % of control
- T/C (dose: 20.0 mg/kg/injection, schedule: Q01DX001 (ip), vehicle: saline): 103 % of control
- T/C (dose: 40.0 mg/kg/injection, schedule: Q01DX001 (ip), vehicle: saline): 100 % of control
- T/C (dose: 80.0 mg/kg/injection, schedule: Q01DX001 (ip), vehicle: saline): 100 % of control
